One experiment concerns IL-1β. Briefly: IL-1β expression in LPS stimulated PBMCs (Meso Scale). The following applies: Homo sapiens, PBMC; for inhibition at 10 µM: compound concentration 10 μM; for inhibition at 1 µM: compound concentration 1 μM. It counts as cell-based, human. The gist of the method: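 Human PBMCs (200,000 cells/well in RPMI-1640/10% FBS) were pretreated with compound for 1 h, then stimulated with 100 ng/mL LPS for 18-24 h. IL-1β in supernatant was measured by Meso Scale assay. Activity is expressed as percentage of LPS-induced level, with DMSO-treated wells as negative control.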

The subject of the next experiment is IL-6. Briefly: IL-6 expression in LPS stimulated PBMCs (Meso Scale). It counts as cell-based, human. The following applies: Homo sapiens, PBMC, LPS-stimulated PBMCs; for inhibition at 10 µM: compound concentration 10 μM; for inhibition at 1 µM: compound concentration 1 μM. The gist of the method:
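Thawed human PBMCs at 200,000 cells/well in RPMI-1640/10% FBS were pretreated with compound or DMSO for 1 h, then stimulated with 100 ng/mL LPS for 18–24 h. Supernatant IL-6 was measured by Meso Scale assay and expressed as % of LPS-induced activity.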

A further experiment concerns TNF-α. Briefly: TNF-α expression in LPS stimulated PBMCs (Meso Scale). It counts as cell-based, human. The settings on record: Homo sapiens, PBMC; for inhibition at 10 µM: compound concentration 10 μM; for inhibition at 1 µM: compound concentration 1 μM. The gist of the method: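 Thawed primary human PBMCs, 200,000 cells/well in RPMI-1640/10% FBS, pretreated with compound 1 h, then stimulated with 100 ng/mL LPS for 18-24 h. Supernatant TNF-α measured by Meso Scale assay; activity expressed as percentage of LPS-induced level, DMSO as negative control.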

The test system of a further experiment is IL-2. Briefly: anti-CD3-induced IL-2 secretion in PBMCs. It counts as cell-based. The following applies: Homo sapiens, PBMC, anti-CD3 stimulated PBMCs, 24 h, DMSO = 1.0, read-out: Fold Change IL-2; for fold induction at 10 µM: compound concentration 10 μM; for fold induction at 1 µM: compound concentration 1 μM. On the procedure: FIGS. 4 and 9D are graphs showing anti-CD3-induced IL-2 secretion in PBMCs. 1 ug/mL anti-CD3 (OKT-3) antibody in PBS were coated onto 96-well plates overnight at 4° C. Approximately 550,000 PBMCs were added to each well, followed by addition of DMSO only, Compound 1-8 at 10 μM (FIG. 4) or Compound 9 at 0.1 μM or 1 μM (FIG. 9D), or 10 μM lenalidomide (rev). Induction was measured after 24 h as fold difference from the DMSO stimulated control.
For the IL-2 analysis, 96 well plates were precoated with 1 ug/mL anti-human CD3 antibody (OKT3, eBioscience Inc.). After washing with PBS, compounds were added to the wells (50 μL/well) followed by PBMCs diluted at 3-4 million cells/mL (150 μL/well). Plates were incubated for 24 h and the supernatants collected for Mesoscale IL-2 analysis.
Compound activity was measured as fold difference from the DMSO control. IL-1-beta activity is shown in FIG. 1; IL-6 activity is shown in FIG. 2; TNF-α activity is shown in FIG. 3; and IL-2 activity is shown in FIG. 4.

In the next experiment the test system is Molm-13 cells. Briefly: Molm-13 cell viability (CellTiter-Glo). In kind it is cell-based. The settings on record: Homo sapiens, MOLM-13, read-out: % Inhibition (MOLM-13 Cell Viability); for cytotoxicity at 10 µM: compound concentration 10 μM; for cytotoxicity at 2.8 µM: compound concentration 2.8 μM. The gist of the method:
(§1)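 Molm-13 (RPMI-1640, 10% FBS) and H1048 (DMEM:F12, 5% FBS with supplements) plated at 20,000 cells/well, treated with compound or 0.1% DMSO for 3 days at 37° C., 5% CO2. Viability read by CellTiter-Glo luminescence after 10 min.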

For a further experiment, the target named is T1, GSPT1 (Homo sapiens, UniProt P15170).
T1 construct: Whole cell extracts were prepared using RIPA buffer according to manufacturer's protocol (Pierce); endogenous in cells
T1 sequence (P15170 whole entry): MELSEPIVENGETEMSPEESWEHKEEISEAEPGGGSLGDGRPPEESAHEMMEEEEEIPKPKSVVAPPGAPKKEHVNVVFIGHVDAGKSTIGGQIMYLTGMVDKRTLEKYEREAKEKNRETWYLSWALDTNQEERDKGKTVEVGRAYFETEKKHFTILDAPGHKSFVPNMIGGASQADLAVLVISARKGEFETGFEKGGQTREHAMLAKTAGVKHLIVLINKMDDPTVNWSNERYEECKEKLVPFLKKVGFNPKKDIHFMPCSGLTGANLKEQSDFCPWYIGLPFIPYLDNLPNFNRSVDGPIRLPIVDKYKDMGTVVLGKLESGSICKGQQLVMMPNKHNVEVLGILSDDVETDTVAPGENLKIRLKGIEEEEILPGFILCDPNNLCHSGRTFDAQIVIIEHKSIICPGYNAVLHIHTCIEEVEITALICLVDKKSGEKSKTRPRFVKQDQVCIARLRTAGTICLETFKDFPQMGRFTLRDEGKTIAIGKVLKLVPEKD
T1 sequence (Q96SW2 whole entry, further chain): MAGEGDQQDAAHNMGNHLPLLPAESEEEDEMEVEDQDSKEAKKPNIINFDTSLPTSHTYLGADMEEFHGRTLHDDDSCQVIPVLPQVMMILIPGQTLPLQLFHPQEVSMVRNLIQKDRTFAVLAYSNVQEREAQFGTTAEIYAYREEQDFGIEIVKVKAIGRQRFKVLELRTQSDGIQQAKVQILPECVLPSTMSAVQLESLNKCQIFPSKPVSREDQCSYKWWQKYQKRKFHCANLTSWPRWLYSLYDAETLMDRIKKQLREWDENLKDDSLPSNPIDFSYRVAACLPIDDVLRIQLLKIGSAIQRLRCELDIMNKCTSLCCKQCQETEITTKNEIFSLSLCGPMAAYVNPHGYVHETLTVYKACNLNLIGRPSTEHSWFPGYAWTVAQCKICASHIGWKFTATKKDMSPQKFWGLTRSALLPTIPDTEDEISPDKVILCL
T1 sequence (Q16531 whole entry partner): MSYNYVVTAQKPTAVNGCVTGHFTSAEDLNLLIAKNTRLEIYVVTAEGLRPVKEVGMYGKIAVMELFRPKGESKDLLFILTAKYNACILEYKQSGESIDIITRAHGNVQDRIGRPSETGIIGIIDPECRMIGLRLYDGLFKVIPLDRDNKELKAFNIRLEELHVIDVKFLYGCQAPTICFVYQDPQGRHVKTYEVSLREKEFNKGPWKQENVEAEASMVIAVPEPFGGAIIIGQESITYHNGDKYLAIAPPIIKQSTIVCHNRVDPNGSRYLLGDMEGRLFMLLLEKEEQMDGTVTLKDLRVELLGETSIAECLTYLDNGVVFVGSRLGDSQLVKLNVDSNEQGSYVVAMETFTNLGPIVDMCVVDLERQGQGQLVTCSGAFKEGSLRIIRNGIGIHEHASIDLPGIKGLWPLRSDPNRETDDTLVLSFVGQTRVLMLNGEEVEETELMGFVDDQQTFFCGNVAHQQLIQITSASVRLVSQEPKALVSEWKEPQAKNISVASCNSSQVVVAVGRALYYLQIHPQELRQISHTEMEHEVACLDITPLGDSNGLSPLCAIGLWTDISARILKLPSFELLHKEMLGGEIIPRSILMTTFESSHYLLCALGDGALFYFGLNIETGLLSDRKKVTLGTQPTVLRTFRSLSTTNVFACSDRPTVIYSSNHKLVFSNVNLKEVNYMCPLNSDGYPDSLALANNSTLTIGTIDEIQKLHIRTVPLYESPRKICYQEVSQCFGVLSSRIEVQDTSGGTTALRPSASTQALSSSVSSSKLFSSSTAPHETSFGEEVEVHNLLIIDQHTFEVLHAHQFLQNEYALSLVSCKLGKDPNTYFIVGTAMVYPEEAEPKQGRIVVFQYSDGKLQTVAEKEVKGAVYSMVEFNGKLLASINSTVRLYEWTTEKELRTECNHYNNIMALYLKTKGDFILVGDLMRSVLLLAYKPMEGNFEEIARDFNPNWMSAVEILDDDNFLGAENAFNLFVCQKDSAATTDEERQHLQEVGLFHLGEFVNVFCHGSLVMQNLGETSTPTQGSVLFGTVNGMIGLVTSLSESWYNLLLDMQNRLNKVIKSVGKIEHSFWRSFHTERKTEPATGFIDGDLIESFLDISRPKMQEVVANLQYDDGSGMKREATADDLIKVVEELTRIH
The experiment in a line: GSPT1 protein levels by Western Blot analysis. In kind it is cell-based. The following applies: DMSO = 100.00; for remaining activity at 0.1 µM: 100 nM compound concentration; for remaining activity at 1 µM: 1 μM compound concentration. The gist of the method: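 Molm-13 AML cells in RPMI 1640 with 10% FBS, about 10^6 cells/mL, treated with compound or DMSO for 6-8 h. RIPA whole-cell lysates resolved by SDS-PAGE, blotted and probed for GSPT1 with β-actin reference; IRDye secondary antibodies quantified by LI-COR Odyssey infrared imaging.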

The test system of the next experiment is H1048 cells. The experiment in a line: H1048 cell viability (CellTiter-Glo). In kind it is cell-based. The following applies: Homo sapiens, NCI-H1048, 72 h, H1048, 3 days, DMSO = 100.00; for viability at 1 µM: 1 μM compound concentration; for viability at 10 µM: 10 μM compound concentration. The gist of the method:
as §1
In general terms: ATP-based viability assays read luminescence as a measure of living cells.

The subject of another experiment is MDA-MB-231 cells. Briefly: MDA-MB-231 cell viability (CellTiter-Glo). In kind it is cell-based. The settings on record: Homo sapiens, 72 h, 3 days, DMSO = 100.00; for viability at 1 µM: 1 μM compound concentration; for viability at 10 µM: 10 μM compound concentration. The gist of the method:
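Cells in DMEM with 10% FBS, seeded at 10,000 per well, exposed to compound (0.1% DMSO control) for 3 days at 37° C, 5% CO2. Viability read by CellTiter-Glo luminescence after 10 min shaking.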

These results are taken from patent US10040804B2, “Compounds targeting proteins, compositions, methods, and uses thereof” (BioTheryX, Inc., priority 2016, dated 2018).

Each structure is given as a SMILES string.

As a reminder, the inhibition is the relative decrease from the control value, in per cent. For `Cc1scc2c1CN([C@H]1CCCCNC1=O)C2=O` [Compound 28, (S)-1-Methyl-5-(2-oxoazepan-3-yl)-5,6-dihydro-4H-thieno[3,4-c]pyrrol-4-one], the inhibition at 10 µM with IL-1β stood at 0%; in the experiment with IL-6, 9%; with TNF-α, 0%. In the experiment on IL-2, the fold induction at 10 µM stood at 0.9. Besides, the cytotoxicity at 10 µM in the experiment on Molm-13 cells worked out at 0%.
The remaining activity is the signal under treatment as a percentage of the control signal. The term viability denotes a read-out of living cells in per cent, often relative to untreated cells. On to `Cc1ccc(NC(=O)NCc2scc3c2CN([C@H]2CCCC(=O)NC2=O)C3=O)cc1Cl` [Compound 30, (S)-1-(3-Chloro-4-methylphenyl)-3-((5-(2,7-dioxoazepan-3-yl)-4-oxo-5,6-dihydro-4H-thieno[3,4-c]pyrrol-1-yl)methyl)urea], for which the figures for the inhibition at 1 µM with IL-1β, with IL-6 and in the experiment on TNF-α were 81%, 98% and 84%, respectively. The fold induction at 1 µM with IL-2 was determined as 0.4. For the same compound, on GSPT1, the remaining activity at 0.1 µM stood at 42.7%. Moreover, at GSPT1, the remaining activity at 1 µM worked out at 5.28%. Also, the results for the viability at 1 µM with H1048 cells and in the experiment on MDA-MB-231 cells were 8.55% and 52.9%, respectively. Also, the viability at 10 µM stood at 8.34% in the experiment on H1048 cells and 26.3% with MDA-MB-231 cells. Also, the cytotoxicity at 1 µM with Molm-13 cells (compound concentration 1 μM) came out at 50%.
For `Cc1ccc(CC(=O)NCc2scc3c2CN([C@H]2CCCC(=O)NC2=O)C3=O)cc1Cl` [Compound 31, (S)-2-(3-Chloro-4-methylphenyl)-N-((5-(2,7-dioxoazepan-3-yl)-4-oxo-5,6-dihydro-4H-thieno[3,4-c]pyrrol-1-yl)methyl)acetamide], the inhibition at 1 µM in the experiment on IL-1β was determined as 76%; with IL-6 it was 40%; in the experiment on TNF-α, 80%. Besides, in the experiment with IL-2, the fold induction at 1 µM amounted to 1.7. The remaining activity at 0.1 µM at GSPT1 amounted to 131%. Further, the remaining activity at 1 µM at GSPT1 amounted to 108%. For the same compound, the viability at 1 µM in the experiment with H1048 cells stood at 84.3%; in the experiment with MDA-MB-231 cells it was 103%. Also, the viability at 10 µM in the experiment on H1048 cells is 26.8%; with MDA-MB-231 cells it was 107%. Also, in the experiment with Molm-13 cells, the cytotoxicity at 10 µM was found to be 12%.
Turning to `O=C1CCC[C@H](N2Cc3c(csc3CNC(=O)Nc3ccc(C(F)(F)F)c(Cl)c3)C2=O)C(=O)N1` [Compound 32, (S)-1-(3-Chloro-4-(trifluoromethyl)phenyl)-3-((5-(2,7-dioxoazepan-3-yl)-4-oxo-5,6-dihydro-4H-thieno[3,4-c]pyrrol-1-yl)methyl)urea], the inhibition at 0.1 µM in the experiment on IL-1β (compound concentration 0.1 μM) amounted to 67%; in the experiment on IL-6 (compound concentration 0.1 μM), 65%; in the experiment on TNF-α (compound concentration 0.1 μM), 62%. The fold induction at 0.1 µM in the experiment with IL-2 (compound concentration 0.1 μM) was 0.8. Besides, at GSPT1, the remaining activity at 0.1 µM is 61.7%. Moreover, the remaining activity at 1 µM at GSPT1 was determined as 29.3%. The viability at 1 µM with H1048 cells stood at 10.6%; with MDA-MB-231 cells, 91.2%. Moreover, the viability at 10 µM is 10.8% in the experiment with H1048 cells and 44.3% with MDA-MB-231 cells. Also, the cytotoxicity at 0.5 µM in the experiment with Molm-13 cells (compound concentration 0.5 μM) is 25%.
With `Cc1cnc(Nc2ccc(OCCCNCC(=O)NCc3scc4c3CN([C@H]3CCCC(=O)NC3=O)C4=O)cc2)nc1Nc1cccc(S(=O)(=O)NC(C)(C)C)c1` [Compound 58, (S)-2-((3-(4-((4-((3-(N-(tert-Butyl)sulfamoyl)phenyl)amino)-5-methylpyrimidin-2-yl)amino)phenoxy)propyl)amino)-N-((5-(2,7-dioxoazepan-3-yl)-4-oxo-5,6-dihydro-4H-thieno[3,4-c]pyrrol-1-yl)methyl)acetamide], the inhibition at 10 µM in the experiment on IL-1β was determined as 82%; in the experiment on IL-6, 53%; with TNF-α, 92%. Also, in the experiment with IL-2, the fold induction at 10 µM was 1.9. Besides, in the experiment on Molm-13 cells (compound concentration 6 μM), the cytotoxicity at 6 µM came to 50%.
Turning to `Cc1cnc(Nc2ccc(OCCCNCC(=O)NCc3scc4c3CN(C3CCC(=O)NC3=O)C4=O)cc2)nc1Nc1cccc(S(=O)(=O)NC(C)(C)C)c1` (stereo not shown) [Compound 59, 2-((3-(4-((4-((3-(N-(tert-Butyl)sulfamoyl)phenyl)amino)-5-methylpyrimidin-2-yl)amino)phenoxy)propyl)amino)-N-((5-(2,6-dioxopiperidin-3-yl)-4-oxo-5,6-dihydro-4H-thieno[3,4-c]pyrrol-1-yl)methyl)acetamide], the inhibition at 10 µM with IL-1β was 45%; in the experiment with IL-6, 10%; in the experiment with TNF-α, 81%. Further, the fold induction at 10 µM with IL-2 turned out to be 1.8. In addition, the cytotoxicity at 2.8 µM in the experiment with Molm-13 cells worked out at 50%.
Regarding `Cc1sc2c(c1C)C(c1ccc(Cl)cc1)=N[C@@H](CC(=O)NCCCCNCC(=O)NCc1scc3c1CN(C1CCC(=O)NC1=O)C3=O)c1nnc(C)n1-2` (stereo partly drawn) [Compound 60, 2-((S)-4-(4-Chlorophenyl)-2,3,9-trimethyl-6H-thieno[3,2-f][1,2,4]triazolo[4,3-a][1,4]diazepin-6-yl)-N-(4-((2-(((5-(2,6-dioxopiperidin-3-yl)-4-oxo-5,6-dihydro-4H-thieno[3,4-c]pyrrol-1-yl)methyl)amino)-2-oxoethyl)amino)butyl)acetamide], the values for the inhibition at 1 µM with IL-1β, in the experiment with IL-6 and in the experiment with TNF-α were 91%, 95% and 93%, respectively. Moreover, the fold induction at 1 µM in the experiment with IL-2 is 0.2. Further, in the experiment on Molm-13 cells (compound concentration 0.2 μM), the cytotoxicity at 0.2 µM was determined as 50%.
As for `Cc1cnc(Nc2ccc(OCCCNC(=O)NCc3scc4c3CN([C@H]3CCCC(=O)NC3=O)C4=O)cc2)nc1Nc1cccc(S(=O)(=O)NC(C)(C)C)c1` [Compound 61, (S)—N-(tert-Butyl)-3-((2-((4-(3-(3-((5-(2,7-dioxoazepan-3-yl)-4-oxo-5,6-dihydro-4H-thieno[3,4-c]pyrrol-1-yl)methyl)ureido)propoxy)phenyl)amino)-5-methylpyrimidin-4-yl)amino)benzenesulfonamide], the inhibition at 10 µM in the experiment with IL-1β came to 53%; in the experiment with IL-6, 11%; in the experiment on TNF-α, 66%. In addition, the fold induction at 10 µM in the experiment on IL-2 stood at 0.8. In addition, the cytotoxicity at 2.8 µM with Molm-13 cells was 50%.
